For assay [1] the following is noted: reported by A. Straub et al., Bioorg. Med. Chem. Lett. 11, 781-784 (2001); cited from earlier work.
For another assay, the system named is aorta rings. Briefly: Vasorelaxant effect in vitro (phenylephrine-contracted aorta rings). The assay is classed as cell-based, Rabbits. The conditions noted are these: Oryctolagus cuniculus; rabbit aorta rings, contraction induced by phenylephrine, 37° C., 0.1% DMSO; read-out: IC50 (concentration necessary to reduce the level of contraction by 50%). On the procedure:
Rabbits are stunned by a blow to the back of the neck and are exsanguinated. The aorta is removed, freed of adherent tissue, divided into rings 1.5 mm wide and placed singly in 5 ml organ baths with carbogen-gassed Krebs-Henseleit solution of the following composition (in each case mM): NaCl: 119; KCl: 4.8; CaCl2×2H2O: 1; MgSO4×7H2O: 1.4; KH2PO4: 1.2; NaHCO3: 25; glucose: 10, under an initial tension at 37° C. The force of contraction is detected with Statham UC2 cells, amplified and digitized via A/D converters (DAS-1802 HC, Keithley Instruments Munich), and recorded in parallel on chart recorders. A contraction is induced by adding phenylephrine to the bath cumulatively in increasing concentration. After several control cycles, the substance to be investigated is added in each further run in increasing dosage each time, and the level of contraction is compared with the level of contraction achieved in the last preceding run. The concentration necessary to reduce the level of contraction by 50% (IC50) is calculated therefrom. The standard application volume is 5 μl and the DMSO content in the bath solution corresponds to 0.1%.

Each structure is given as a SMILES string.

Consider `Fc1ccccc1Cn1nc(-c2nnn[nH]2)c2cccnc21` [1-(2-fluorobenzyl)-3-(1H-tetrazol-5-yl)-1H-pyrazolo[3,4-b]pyridine], for which the vasorelaxant effect result in assay [1] was “moderately vasorelaxant effect”.

Regarding `c1cnc2c(c1)c(-c1nnn[nH]1)nn2CC1CCCCCC1` [Example 1, 1-(Cycloheptylmethyl)-3-(1H-tetrazol-5-yl)-1H-pyrazolo[3,4-b]pyridine], the IC50 with aorta rings was found to be 2 µM.

As to `Fc1cccc(Cn2nc(-c3nnn[nH]3)c3cccnc32)c1F` [Example 4, 1-(2,3-Difluorobenzyl)-3-(1H-tetrazol-5-yl)-1H-pyrazolo[3,4-b]pyridine], in the assay with aorta rings, the IC50 amounted to 4.5 µM.

Consider `Clc1ccc(Cn2nc(-c3nnn[nH]3)c3cccnc32)s1` [Example 7, 1-[(5-Chloro-2-thienyl)methyl]-3-(1H-tetrazol-5-yl)-1H-pyrazolo[3,4-b]pyridine], for which, in the assay on aorta rings, the IC50 is 6.1 µM.
